Laboratory results: PubChem BioAssay (NCI)
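Assay format: 96-well plates, 48-hour exposure. At the TGI there is no net growth.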 Where a SMILES comes first, the peptide text is derived from it. [ ]: non-standard residue; d: D form. The star is where a group is joined. ξ: configuration not given here. ξPhe(4-NO2) = NC(Cc1ccc([N+](=O)[O-])cc1)C(=O)O; Boc = CC(C)(C)OC(=O)*; OBn = c1ccc(CO*)cc1

Columns and labels:
Assay in all cases: inhibition of tumour cell growth, NCI panel, 48 h
EKVX NSCLC = system: EKVX NSCLC
U251 CNS = system: U251 CNS
SK-MEL-5 melanoma = system: SK-MEL-5 melanoma
NCI-H460 lung = system: NCI-H460 lung
MOLT-4 leukemia = system: MOLT-4 leukemia
SK-OV-3 ovarian = system: SK-OV-3 ovarian
OVCAR-3 ovarian = system: OVCAR-3 ovarian
SN12C renal = system: SN12C renal
PC-3 prostate = system: PC-3 prostate
IGROV1 ovarian = system: IGROV1 ovarian
SF-268 CNS = system: SF-268 CNS
MDA-N = system: MDA-N
HOP-92 NSCLC = system: HOP-92 NSCLC

## CC1(C)C=[N+]([O-])C(C)(C)N1
EKVX NSCLC
  TGI: > 100 µM
U251 CNS
  TGI: > 100 µM
SK-MEL-5 melanoma
  TGI: > 100 µM
NCI-H460 lung
  TGI: > 100 µM
MOLT-4 leukemia
  TGI: > 100 µM
SK-OV-3 ovarian
  TGI: > 100 µM
OVCAR-3 ovarian
  TGI: > 100 µM
SN12C renal
  TGI: > 100 µM
PC-3 prostate
  TGI: > 100 µM
IGROV1 ovarian
  TGI: > 100 µM
SF-268 CNS
  TGI: > 100 µM
MDA-N
  TGI: > 100 µM
HOP-92 NSCLC
  TGI: > 100 µM

## O=C1SC(c2ccc(Cl)cc2)(c2ccc(Cl)cc2)c2ccccc21
EKVX NSCLC
  TGI: > 100 µM
U251 CNS
  TGI: > 100 µM
SK-MEL-5 melanoma
  TGI: > 100 µM
NCI-H460 lung
  TGI: > 100 µM
MOLT-4 leukemia
  TGI: > 100 µM
SK-OV-3 ovarian
  TGI: > 100 µM
OVCAR-3 ovarian
  TGI: > 100 µM
SN12C renal
  TGI: > 100 µM
PC-3 prostate
  TGI: > 100 µM
IGROV1 ovarian
  TGI: > 100 µM
SF-268 CNS
  TGI: > 100 µM
MDA-N
  TGI: > 100 µM
HOP-92 NSCLC
  TGI: > 100 µM

## CC(C)(C)OC(=O)NC(Cc1ccc([N+](=O)[O-])cc1)C(=O)NCC(=O)OCc1ccccc1 (stereo not given) (Boc-[ξPhe(4-NO2)]-Gly-OBn)
EKVX NSCLC
  TGI: > 100 µM
U251 CNS
  TGI: 40.6 µM
SK-MEL-5 melanoma
  TGI: 46.2 µM
NCI-H460 lung
  TGI: 49.4 µM
MOLT-4 leukemia
  TGI: 48.1 µM
SK-OV-3 ovarian
  TGI: 64.8 µM
OVCAR-3 ovarian
  TGI: 50.5 µM
SN12C renal
  TGI: 45.9 µM
PC-3 prostate
  TGI: 49.6 µM
IGROV1 ovarian
  TGI: > 100 µM
SF-268 CNS
  TGI: 38.6 µM
MDA-N
  TGI: 39.8 µM
HOP-92 NSCLC
  TGI: 65.9 µM

## O=[N+]([O-])/C(Cl)=C(\Nc1ccccc1)C(Cl)=C(Cl)Cl
EKVX NSCLC
  TGI: > 100 µM
U251 CNS
  TGI: > 100 µM
SK-MEL-5 melanoma
  TGI: 47 µM
NCI-H460 lung
  TGI: > 100 µM
MOLT-4 leukemia
  TGI: > 100 µM
SK-OV-3 ovarian
  TGI: > 100 µM
OVCAR-3 ovarian
  TGI: 40.7 µM
SN12C renal
  TGI: > 100 µM
PC-3 prostate
  TGI: > 100 µM
IGROV1 ovarian
  TGI: 79 µM
SF-268 CNS
  TGI: > 100 µM
MDA-N
  TGI: > 100 µM
HOP-92 NSCLC
  TGI: 69.5 µM

## Cc1ccc(S(=O)(=O)[N-]C2C(=O)c3ccccc3C(=O)C2[n+]2cccc(C(N)=O)c2)cc1 (stereo not given)
EKVX NSCLC
  TGI: > 100 µM
U251 CNS
  TGI: > 100 µM
SK-MEL-5 melanoma
  TGI: > 100 µM
NCI-H460 lung
  TGI: > 100 µM
MOLT-4 leukemia
  TGI: > 100 µM
SK-OV-3 ovarian
  TGI: > 100 µM
OVCAR-3 ovarian
  TGI: > 100 µM
SN12C renal
  TGI: > 100 µM
PC-3 prostate
  TGI: > 100 µM
IGROV1 ovarian
  TGI: > 100 µM
SF-268 CNS
  TGI: > 100 µM
MDA-N
  TGI: > 100 µM
HOP-92 NSCLC
  TGI: > 100 µM

## COc1cc(C)cc2c1C(=O)C(Br)=CC2=O
EKVX NSCLC
  TGI: 33.4 µM
U251 CNS
  TGI: 37.4 µM
SK-MEL-5 melanoma
  TGI: 25.1 µM
NCI-H460 lung
  TGI: 38.4 µM
MOLT-4 leukemia
  TGI: 5.19 µM
SK-OV-3 ovarian
  TGI: 33.8 µM
OVCAR-3 ovarian
  TGI: 11.7 µM
SN12C renal
  TGI: 30.9 µM
PC-3 prostate
  TGI: 31.3 µM
IGROV1 ovarian
  TGI: 31.7 µM
SF-268 CNS
  TGI: 35.8 µM
MDA-N
  TGI: 8.16 µM
HOP-92 NSCLC
  TGI: 5.41 µM

## COc1ccc(OC)c(NC(=O)C(=O)Nn2c(=S)[nH]c3ccccc3c2=O)c1
EKVX NSCLC
  TGI: > 100 µM
U251 CNS
  TGI: > 100 µM
SK-MEL-5 melanoma
  TGI: > 100 µM
NCI-H460 lung
  TGI: > 100 µM
MOLT-4 leukemia
  TGI: > 100 µM
SK-OV-3 ovarian
  TGI: > 100 µM
OVCAR-3 ovarian
  TGI: > 100 µM
SN12C renal
  TGI: > 100 µM
PC-3 prostate
  TGI: > 100 µM
IGROV1 ovarian
  TGI: > 100 µM
SF-268 CNS
  TGI: > 100 µM
MDA-N
  TGI: > 100 µM
HOP-92 NSCLC
  TGI: > 100 µM

## C[C@@H]1C[C@@H](O)[C@@]2(O)C13CC(=O)OC(C3)[C@@H](C)[C@@]2(C)CO (stereo not given in full)
EKVX NSCLC
  TGI: > 100 µM
U251 CNS
  TGI: > 100 µM
SK-MEL-5 melanoma
  TGI: > 100 µM
NCI-H460 lung
  TGI: > 100 µM
MOLT-4 leukemia
  TGI: > 100 µM
SK-OV-3 ovarian
  TGI: > 100 µM
OVCAR-3 ovarian
  TGI: > 100 µM
SN12C renal
  TGI: > 100 µM
PC-3 prostate
  TGI: > 100 µM
IGROV1 ovarian
  TGI: > 100 µM
SF-268 CNS
  TGI: > 100 µM
MDA-N
  TGI: > 100 µM
HOP-92 NSCLC
  TGI: > 100 µM

## O=c1oc2ccccc2cc1-c1nnc(-c2ccccc2)s1
EKVX NSCLC
  TGI: > 100 µM
U251 CNS
  TGI: 26.4 µM
SK-MEL-5 melanoma
  TGI: > 100 µM
NCI-H460 lung
  TGI: > 100 µM
MOLT-4 leukemia
  TGI: > 100 µM
SK-OV-3 ovarian
  TGI: > 90 µM
OVCAR-3 ovarian
  TGI: > 58.5 µM
SN12C renal
  TGI: > 100 µM
PC-3 prostate
  TGI: > 100 µM
IGROV1 ovarian
  TGI: > 66.3 µM
SF-268 CNS
  TGI: > 100 µM
MDA-N
  TGI: > 78.1 µM
HOP-92 NSCLC
  TGI: > 100 µM

## COc1ccc2nc3cc([N+](=O)[O-])ccc3c(NNc3ccc(Cl)cc3)c2c1
EKVX NSCLC
  TGI: 99 µM
U251 CNS
  TGI: 74.6 µM
SK-MEL-5 melanoma
  TGI: 36.2 µM
NCI-H460 lung
  TGI: > 59 µM
MOLT-4 leukemia
  TGI: > 92.4 µM
SK-OV-3 ovarian
  TGI: > 100 µM
OVCAR-3 ovarian
  TGI: > 20.5 µM
SN12C renal
  TGI: 98 µM
PC-3 prostate
  TGI: > 77.5 µM
IGROV1 ovarian
  TGI: 45.1 µM
SF-268 CNS
  TGI: > 100 µM
MDA-N
  TGI: > 100 µM
HOP-92 NSCLC
  TGI: 57.9 µM

## OCCSCc1cc2c(O)c(c1)Cc1cc(CSCCO)cc(c1O)Cc1cc(CSCCO)cc(c1O)Cc1cc(CSCCO)cc(c1O)C2
EKVX NSCLC
  TGI: 46.1 µM
U251 CNS
  TGI: 16.8 µM
SK-MEL-5 melanoma
  TGI: 4.4 µM
NCI-H460 lung
  TGI: 7.84 µM
MOLT-4 leukemia
  TGI: > 100 µM
SK-OV-3 ovarian
  TGI: 31.7 µM
OVCAR-3 ovarian
  TGI: 4.27 µM
SN12C renal
  TGI: 22.7 µM
PC-3 prostate
  TGI: 8.88 µM
IGROV1 ovarian
  TGI: 10.9 µM
SF-268 CNS
  TGI: 7.78 µM
MDA-N
  TGI: 11.8 µM
HOP-92 NSCLC
  TGI: 15.2 µM

## Nc1nc(Cl)cc(NCC2(CO)CCC2)n1
EKVX NSCLC
  TGI: > 100 µM
U251 CNS
  TGI: > 100 µM
SK-MEL-5 melanoma
  TGI: > 100 µM
NCI-H460 lung
  TGI: > 100 µM
MOLT-4 leukemia
  TGI: > 100 µM
SK-OV-3 ovarian
  TGI: > 100 µM
OVCAR-3 ovarian
  TGI: > 100 µM
SN12C renal
  TGI: > 100 µM
PC-3 prostate
  TGI: > 100 µM
IGROV1 ovarian
  TGI: > 100 µM
SF-268 CNS
  TGI: > 100 µM
MDA-N
  TGI: > 100 µM
HOP-92 NSCLC
  TGI: > 100 µM

## CCC(CC)C(=O)OC[n+]1cccc(-c2c(COC(=O)NC(C)C)c(COC(=O)NC(C)C)c3n2CCC3)c1
EKVX NSCLC
  TGI: > 100 µM
U251 CNS
  TGI: > 100 µM
SK-MEL-5 melanoma
  TGI: > 100 µM
NCI-H460 lung
  TGI: > 100 µM
MOLT-4 leukemia
  TGI: > 100 µM
SK-OV-3 ovarian
  TGI: > 100 µM
OVCAR-3 ovarian
  TGI: > 100 µM
SN12C renal
  TGI: > 100 µM
PC-3 prostate
  TGI: > 100 µM
IGROV1 ovarian
  TGI: > 100 µM
SF-268 CNS
  TGI: > 100 µM
MDA-N
  TGI: > 100 µM
HOP-92 NSCLC
  TGI: > 100 µM

## O=c1oc2cc(O)ccc2c(O)c1C(c1ccccn1)c1c(O)c2ccc(O)cc2oc1=O
EKVX NSCLC
  TGI: > 100 µM
U251 CNS
  TGI: > 100 µM
SK-MEL-5 melanoma
  TGI: > 100 µM
NCI-H460 lung
  TGI: > 100 µM
MOLT-4 leukemia
  TGI: > 100 µM
SK-OV-3 ovarian
  TGI: > 100 µM
OVCAR-3 ovarian
  TGI: > 100 µM
SN12C renal
  TGI: > 100 µM
PC-3 prostate
  TGI: > 100 µM
IGROV1 ovarian
  TGI: > 100 µM
SF-268 CNS
  TGI: > 100 µM
MDA-N
  TGI: > 100 µM
HOP-92 NSCLC
  TGI: > 100 µM

## Cn1cc2c(=O)n3ncn(-c4ccc(Br)cc4)c3nc2n1
EKVX NSCLC
  TGI: > 100 µM
U251 CNS
  TGI: > 100 µM
SK-MEL-5 melanoma
  TGI: > 100 µM
NCI-H460 lung
  TGI: > 100 µM
MOLT-4 leukemia
  TGI: > 100 µM
SK-OV-3 ovarian
  TGI: > 100 µM
OVCAR-3 ovarian
  TGI: > 100 µM
SN12C renal
  TGI: > 100 µM
PC-3 prostate
  TGI: > 100 µM
IGROV1 ovarian
  TGI: > 100 µM
SF-268 CNS
  TGI: > 100 µM
MDA-N
  TGI: > 100 µM
HOP-92 NSCLC
  TGI: > 100 µM
